# Measured values reported in US7902327B2, “Dendrimeric peptides, pharmaceutical compositions and methods of using the same” (New York University School of Medicine, priority 2007, dated 2011).
# Where two headings read alike, the source gives them in different places. Where a SMILES comes first, the peptide text is derived from it. Where no end group is shown, it is not given here. Side-chain parts run from the residue outwards. [ ]: non-standard residue; d: D form. The star is where a group is joined. Lys(α,ε-(ArgTrp)2) = N=C(N)NCCC[C@H](N)C(=O)N[C@@H](Cc1c[nH]c2ccccc12)C(=O)NCCCC[C@H](NC(=O)[C@H](Cc1c[nH]c2ccccc12)NC(=O)[C@@H](N)CCCNC(=N)N)C(=O)*; NHBn = c1ccc(CN*)cc1; OBn = c1ccc(CO*)cc1; X1 = CCCCCCCCCN*; βAla = NCCC(=O)O
# Key:
# [1] = system: B. anthracis (32F2 Sterne)
# [2] = system: ampicillin- and streptomycin-resistant E. coli (D31); details: for MIC50 E. coli D31: salt not stated
# [3] = system: multi-drug resistant strain S. aureus
# [4] = system: Acinetobacter. baumannii (ATCC BAA-747)
# fresh sheep erythrocytes = experiment: hemolytic assay; type: cell-based; details: sheep erythrocytes, 37° C., 30 minutes
# Experimental: Hemolytic activity of model peptides was assessed on fresh sheep erythrocytes (Fitzgerald Inc., Concord, Mass.). […] The resulting supernatant was diluted by a factor of 40 in distilled water. The absorbances of the supernatant at λ=540 nm (OD540) were measured in the UV Spectrophotometer. […] Hemolytic index (HI) was defined as HI═HD50/IC50.
# E. coli RP437 biofilms = experiment: biofilm assay on stainless steel coupons with LIVE/DEAD staining; type: cell-based; details: for Biofilm coefficients: Dead cells / Biofilm coefficients: Live cells / Biofilm coefficients: Total biofilms: 24 hours
# Experimental: The stainless steel (S.S.) coupons were polished using a fine 3M SandBlaster sandpaper, then autoclaved for sterilization. […] For all the treatments, duplicate coupons were tested. To analyze the E. coli biofilms using fluorescence microscopy, the biofilms were stained with […] bacterial viability kit (Cat# L7012, Invitrogen Corporation, California). Each S.S. coupon was washed gently by dipping vertically in 0.85% NaCl buffer three times (change to fresh buffer after each dipping). Then, they were soaked in 1 mL of 0.85% NaCl buffer containing 3 μl of staining component A and B (1:4) in the dark for 15 mins. Images were taken by AXIO Imager.M1 (Carl Zeiss, German). Five images were taken for each sample. Data were obtained and are presented in Table 3, below, as well as in FIG. 5.
# [5] = system: three other gram-positive bacteria
molecule,measurement,setting,value
"N=C(N)NCCC[C@H](N)C(=O)N[C@@H](Cc1c[nH]c2ccccc12)C(=O)NCCCC[C@H](NC(=O)[C@H](Cc1c[nH]c2ccccc12)NC(=O)[C@@H](N)CCCNC(=N)N)C(=O)NCCCC[C@H](NC(=O)[C@H](CCCCNC(=O)[C@H](Cc1c[nH]c2ccccc12)NC(=O)[C@@H](N)CCCNC(=N)N)NC(=O)[C@H](Cc1c[nH]c2ccccc12)NC(=O)[C@@H](N)CCCNC(=N)N)C(=O)NCCC(=O)NCc1ccccc1 [(RW)4D-Benzyl amine] (H-RWK([Trp-Arg])K(Lys(α,ε-(ArgTrp)2))[βAla]-NHBn)",MIC50 B. anthracis,[1],34.8 µg/mL
same,MIC50 E. coli D31,[2],21.3 µg/mL
same,MIC50 S. aureus,[3]; salt not stated,37.8 µg/mL
same,MIC50 A. baumannii,[4],121 µg/mL
same,MIC50 B. subtilis,B. Subtilis (ATCC 6633); ATCC 6633,5.0 µg/mL
same,MIC50 E. coli,E. coli,12.8 µg/mL
Gentamicin [reference compound],MIC50 B. anthracis,[1],3.1 µg/mL
same,HD50 (peptide concentration corresponding to 50% hemolysis),fresh sheep erythrocytes,>2000 µg/mL
same,MIC50 E. coli,[2]; 0 mM NaCl,1.2 µg/mL
same,MIC50 E. coli,[2]; 75 mM NaCl,1.2 µg/mL
same,MIC50 E. coli,[2]; 150 mM NaCl,1.2 µg/mL
same,MIC50 E. faecalis,E. faecalis (29212),0.36 µg/mL
same,MIC50 S. aureus,[3]; 0 mM NaCl,51 µg/mL
same,MIC50 S. aureus,[3]; 75 mM NaCl,51 µg/mL
same,MIC50 S. aureus,[3]; 150 mM NaCl,51 µg/mL
same,MIC50 B. subtilis,B. Subtilis (ATCC 6633),0.32 µg/mL
"N=C(N)NCCC[C@H](N)C(=O)N[C@@H](Cc1c[nH]c2ccccc12)C(=O)NCCCC[C@H](NC(=O)[C@H](Cc1c[nH]c2ccccc12)NC(=O)[C@@H](N)CCCNC(=N)N)C(=O)NCCCC[C@H](NC(=O)[C@H](CCCCNC(=O)[C@H](Cc1c[nH]c2ccccc12)NC(=O)[C@@H](N)CCCNC(=N)N)NC(=O)[C@H](Cc1c[nH]c2ccccc12)NC(=O)[C@@H](N)CCCNC(=N)N)C(=O)NCCC(=O)OCc1ccccc1 [(RW)4D-Benzyl ester] (H-RWK([Trp-Arg])K(Lys(α,ε-(ArgTrp)2))[βAla]-OBn)",MIC50 B. anthracis,[1],34.2 µg/mL
same,MIC50 E. coli D31,[2],29.7 µg/mL
same,MIC50 S. aureus,[3]; salt not stated,19.6 µg/mL
same,MIC50 A. baumannii,[4],78.7 µg/mL
same,MIC50 B. subtilis,B. Subtilis (ATCC 6633); ATCC 6633,6.8 µg/mL
same,MIC50 E. coli,E. coli,14.3 µg/mL
N=C(N)NCCC[C@H](N)C(=O)N[C@@H](Cc1ccc2ccccc2c1)C(=O)NCCCC[C@H](NC(=O)[C@H](Cc1ccc2ccccc2c1)NC(=O)[C@@H](N)CCCNC(=N)N)C(=O)NCCCC[C@H](NC(=O)[C@H](CCCCNC(=O)[C@H](Cc1ccc2ccccc2c1)NC(=O)[C@@H](N)CCCNC(=N)N)NC(=O)[C@H](Cc1ccc2ccccc2c1)NC(=O)[C@@H](N)CCCNC(=N)N)C(=O)NCCC(N)=O [Den(R-2Nal)4D],MIC50 S. aureus,[3]; salt not stated,36.0 µg/mL
same,MIC50 A. baumannii,[4],51.3 µg/mL
same,MIC50 E. coli,E. coli,21.5 µg/mL
N=C(N)NCCC[C@H](N)C(=O)NC(Cc1c[nH]c2ccc(F)cc12)C(=O)NCCCC[C@H](NC(=O)C(Cc1c[nH]c2ccc(F)cc12)NC(=O)[C@@H](N)CCCNC(=N)N)C(=O)NCCCC[C@H](NC(=O)[C@H](CCCCNC(=O)C(Cc1c[nH]c2ccc(F)cc12)NC(=O)[C@@H](N)CCCNC(=N)N)NC(=O)C(Cc1c[nH]c2ccc(F)cc12)NC(=O)[C@@H](N)CCCNC(=N)N)C(=O)NCCC(N)=O (some centres unmarked) [Den(RW*)4D],MIC50 S. aureus,[3]; salt not stated,13 µg/mL
same,MIC50 A. baumannii,[4],35 µg/mL
same,MIC50 E. coli,E. coli,9.3 µg/mL
N=C(N)NCCC[C@H](N)C(=O)N[C@@H](Cc1ccc(O)cc1)C(=O)NCCCC[C@H](NC(=O)[C@H](Cc1ccc(O)cc1)NC(=O)[C@@H](N)CCCNC(=N)N)C(=O)NCCCC[C@H](NC(=O)[C@H](CCCCNC(=O)[C@H](Cc1ccc(O)cc1)NC(=O)[C@@H](N)CCCNC(=N)N)NC(=O)[C@H](Cc1ccc(O)cc1)NC(=O)[C@@H](N)CCCNC(=N)N)C(=O)NCCC(N)=O [Den(RY)4D],MIC50 S. aureus,[3]; salt not stated,45.7 µg/mL
same,MIC50 A. baumannii,[4],193 µg/mL
same,MIC50 E. coli,E. coli,12.6 µg/mL
"RWRWRW-NH2 (C-terminus assumed) [Hexamer, reference compound]",Total biofilm formation compared with blank control (ANOVA),E. coli RP437 biofilms; 25 μg/mL,not significant
same,Biofilm coefficients: Dead cells,E. coli RP437 biofilms; 25 μg/mL,12.29% ± 2.00%
same,Biofilm coefficients: Live cells,E. coli RP437 biofilms; 25 μg/mL,5.18% ± 1.57%
same,Biofilm coefficients: Total biofilms,E. coli RP437 biofilms; 25 μg/mL,17.49% ± 2.20%
same,Total biofilm formation compared with blank control (ANOVA),E. coli RP437 biofilms; 50 μg/mL,significantly reduced
same,Biofilm coefficients: Dead cells,E. coli RP437 biofilms; 50 μg/mL,12.22% ± 2.02%
same,Biofilm coefficients: Live cells,E. coli RP437 biofilms; 50 μg/mL,4.25% ± 1.55%
same,Biofilm coefficients: Total biofilms,E. coli RP437 biofilms; 50 μg/mL,16.68% ± 2.11%
"CC[C@H](C)[C@H](N)C(=O)N[C@@H](CC(C)C)C(=O)N1CCC[C@H]1C(=O)N[C@@H](Cc1c[nH]c2ccccc12)C(=O)N[C@@H](CCCCN)C(=O)N[C@@H](Cc1c[nH]c2ccccc12)C(=O)N1CCC[C@H]1C(=O)N[C@@H](Cc1c[nH]c2ccccc12)C(=O)N[C@@H](Cc1c[nH]c2ccccc12)C(=O)N1CCC[C@H]1C(=O)N[C@@H](Cc1c[nH]c2ccccc12)C(=O)N[C@@H](CCCNC(=N)N)C(=O)N[C@@H](CCCNC(=N)N)C(N)=O [Indolicidin, reference compound]",MIC50 B. anthracis,[1]; 32F2 Sterne,8.2 µg/mL
same,HD50 (peptide concentration corresponding to 50% hemolysis),fresh sheep erythrocytes,293 µg/mL
same,increase in MIC50 value from no salt to high-salt condition,"[2]; E. coli and S. aureus, 0 to 150 mM NaCl",> 100%
same,mean MIC50 against all test organisms,[5],3.6 µg/mL
same,MIC50 E. faecalis,E. faecalis (29212); 29212,1.6 µg/mL
same,MIC50 B. subtilis,B. Subtilis (ATCC 6633); ATCC 6633,1.0 µg/mL
NCCCC[C@H](N)C(=O)N[C@@H](Cc1ccc(O)cc1)C(=O)NCCCC[C@H](NC(=O)[C@H](Cc1ccc(O)cc1)NC(=O)[C@@H](N)CCCCN)C(=O)NCCCC[C@H](NC(=O)[C@H](CCCCNC(=O)[C@H](Cc1ccc(O)cc1)NC(=O)[C@@H](N)CCCCN)NC(=O)[C@H](Cc1ccc(O)cc1)NC(=O)[C@@H](N)CCCCN)C(=O)NCCC(N)=O [Den(KY)4D],MIC50 S. aureus,[3]; salt not stated,240 µg/mL
same,MIC50 A. baumannii,[4],360 µg/mL
same,MIC50 E. coli,E. coli,84.4 µg/mL
NCCCC[C@H](N)C(=O)N[C@@H](Cc1ccccc1)C(=O)NCCCC[C@H](NC(=O)[C@H](Cc1ccccc1)NC(=O)[C@@H](N)CCCCN)C(=O)NCCCC[C@H](NC(=O)[C@H](CCCCNC(=O)[C@H](Cc1ccccc1)NC(=O)[C@@H](N)CCCCN)NC(=O)[C@H](Cc1ccccc1)NC(=O)[C@@H](N)CCCCN)C(=O)NCCC(N)=O [Den(KF)4D],MIC50 S. aureus,[3]; salt not stated,145 µg/mL
same,MIC50 A. baumannii,[4],175 µg/mL
same,MIC50 E. coli,E. coli,77 µg/mL
NCCCC[C@H](N)C(=O)N[C@@H](Cc1c[nH]c2ccccc12)C(=O)NCCCC[C@H](NC(=O)[C@H](Cc1c[nH]c2ccccc12)NC(=O)[C@@H](N)CCCCN)C(=O)NCCCC[C@H](NC(=O)[C@H](CCCCNC(=O)[C@H](Cc1c[nH]c2ccccc12)NC(=O)[C@@H](N)CCCCN)NC(=O)[C@H](Cc1c[nH]c2ccccc12)NC(=O)[C@@H](N)CCCCN)C(=O)NCCC(N)=O [Den(KW)4D],MIC50 S. aureus,[3]; salt not stated,23.3 µg/mL
same,MIC50 A. baumannii,[4],52 µg/mL
same,MIC50 E. coli,E. coli,30.6 µg/mL
N=C(N)NCCC[C@H](N)C(=O)N[C@@H](Cc1ccccc1)C(=O)NCCCC[C@H](NC(=O)[C@H](Cc1ccccc1)NC(=O)[C@@H](N)CCCNC(=N)N)C(=O)NCCCC[C@H](NC(=O)[C@H](CCCCNC(=O)[C@H](Cc1ccccc1)NC(=O)[C@@H](N)CCCNC(=N)N)NC(=O)[C@H](Cc1ccccc1)NC(=O)[C@@H](N)CCCNC(=N)N)C(=O)NCCC(N)=O [Den(RF)4D],MIC50 S. aureus,[3]; salt not stated,180 µg/mL
same,MIC50 A. baumannii,[4],160 µg/mL
same,MIC50 E. coli,E. coli,30 µg/mL
NC(=O)CCNC(=O)[C@H](CCCCNC(=O)[C@H](CCCCNC(=O)[C@H](Cc1c[nH]c2ccccc12)NC(=O)[C@@H](N)Cc1c[nH]cn1)NC(=O)[C@H](Cc1c[nH]c2ccccc12)NC(=O)[C@@H](N)Cc1c[nH]cn1)NC(=O)[C@H](CCCCNC(=O)[C@H](Cc1c[nH]c2ccccc12)NC(=O)[C@@H](N)Cc1c[nH]cn1)NC(=O)[C@H](Cc1c[nH]c2ccccc12)NC(=O)[C@@H](N)Cc1c[nH]cn1 [Den(HW)4D],MIC50 A. baumannii,[4],82.7 µg/mL
same,MIC50 E. coli,E. coli,30.6 µg/mL
"CCCCCCCCCNC(=O)CCNC(=O)[C@H](CCCCNC(=O)[C@H](CCCCNC(=O)[C@H](Cc1c[nH]c2ccccc12)NC(=O)[C@@H](N)CCCNC(=N)N)NC(=O)[C@H](Cc1c[nH]c2ccccc12)NC(=O)[C@@H](N)CCCNC(=N)N)NC(=O)[C@H](CCCCNC(=O)[C@H](Cc1c[nH]c2ccccc12)NC(=O)[C@@H](N)CCCNC(=N)N)NC(=O)[C@H](Cc1c[nH]c2ccccc12)NC(=O)[C@@H](N)CCCNC(=N)N [(RW)4D-Nonylamine] (H-RWK([Trp-Arg])K(Lys(α,ε-(ArgTrp)2))[βAla]-X1)",MIC50 B. anthracis,[1],31.8 µg/mL
same,MIC50 E. coli D31,[2],26.7 µg/mL
same,MIC50 S. aureus,[3]; salt not stated,21.6 µg/mL
same,MIC50 A. baumannii,[4],75.2 µg/mL
same,MIC50 B. subtilis,B. Subtilis (ATCC 6633); ATCC 6633,6.5 µg/mL
same,MIC50 E. coli,E. coli,15.8 µg/mL
